What was measured:
Settings in all cases: 72 h
Caco-2 [1] = assay: cell viability relative to DMSO; higher = less toxic
Calu-3 [2] = assay: as above
HepG2 [3] = assay: as above
U2OS [4] = assay: as above
Vero E6 [5] = assay: as above
Caco-2 [6] = assay: relative viability EC50 (midpoint between 100% and the lowest measured viability); higher = less toxic
Calu-3 [7] = assay: as above
HepG2 [8] = assay: as above
U2OS [9] = assay: as above
Vero E6 [10] = assay: as above
Caco-2 [11] = assay: drug sensitivity score (DSS) for viability; higher = more toxic; extreme values may be limits of the assay
Calu-3 [12] = assay: as above
HepG2 [13] = assay: as above
U2OS [14] = assay: as above
Vero E6 [15] = assay: as above

| SMILES | cell viability (Caco-2 [1]; 1 nM) [%] | cell viability (Caco-2 [1]; 10 nM) [%] | cell viability (Caco-2 [1]; 100 nM) [%] | cell viability (Caco-2 [1]; 1000 nM) [%] | cell viability (Caco-2 [1]; 10000 nM) [%] | cell viability (Calu-3 [2]; 1 nM) [%] | cell viability (Calu-3 [2]; 10 nM) [%] | cell viability (Calu-3 [2]; 100 nM) [%] | cell viability (Calu-3 [2]; 1000 nM) [%] | cell viability (Calu-3 [2]; 10000 nM) [%] | cell viability (HepG2 [3]; 1 nM) [%] | cell viability (HepG2 [3]; 10 nM) [%] | cell viability (HepG2 [3]; 100 nM) [%] | cell viability (HepG2 [3]; 1000 nM) [%] | cell viability (HepG2 [3]; 10000 nM) [%] | cell viability (U2OS [4]; 1 nM) [%] | cell viability (U2OS [4]; 10 nM) [%] | cell viability (U2OS [4]; 100 nM) [%] | cell viability (U2OS [4]; 1000 nM) [%] | cell viability (U2OS [4]; 10000 nM) [%] | cell viability (Vero E6 [5]; 1 nM) [%] | cell viability (Vero E6 [5]; 10 nM) [%] | cell viability (Vero E6 [5]; 100 nM) [%] | cell viability (Vero E6 [5]; 1000 nM) [%] | cell viability (Vero E6 [5]; 10000 nM) [%] | relative viability EC50 (Caco-2 [6]) [µM] | relative viability EC50 (Calu-3 [7]) [µM] | relative viability EC50 (HepG2 [8]) [µM] | relative viability EC50 (U2OS [9]) [µM] | relative viability EC50 (Vero E6 [10]) [µM] | drug sensitivity score (Caco-2 [11]) | drug sensitivity score (Calu-3 [12]) | drug sensitivity score (HepG2 [13]) | drug sensitivity score (U2OS [14]) | drug sensitivity score (Vero E6 [15]) |
| --- | --- | --- | --- | --- | --- | --- | --- | --- | --- | --- | --- | --- | --- | --- | --- | --- | --- | --- | --- | --- | --- | --- | --- | --- | --- | --- | --- | --- | --- | --- | --- | --- | --- | --- | --- |
| CC(=O)N[C@@H](CC(=O)O)C(=O)N[C@@H](CCC(=O)O)C(=O)O [spaglumic-acid] | 105 | 98.1 | 101 | 94.6 | 101 | 89.7 | 93.3 | 100 | 97.2 | 105 | 101 | 108 | 91.5 | 114 | 95.5 | 101 | 96.2 | 104 | 102 | 102 | 93.6 | 105 | 101 | 102 | 100 | > 10 | > 10 | > 10 | > 10 | > 10 | 0 | 0 | 0 | 0 | 0 |
| Nc1ncnc2c1ncn2[C@@H]1O[C@H](CO)C[C@H]1O [cordycepin] | 93.9 | 99 | 95.2 | 97.5 | 103 | 94.6 | 98.6 | 86.1 | 92.5 | 101 | 95.3 | 98.9 | 104 | 97.4 | 114 | 95.7 | 99.3 | 95 | 105 | 110 | 96.6 | 97 | 96.2 | 98.1 | 103 | > 10 | > 10 | > 10 | > 10 | > 10 | 0 | 0 | 0 | 0 | 0 |
| CC(=O)N(O)C/C=C/c1cccc(Oc2ccccc2)c1 [BW-A4C] | 92.5 | 103 | 115 | 92.9 | 102 | 89.6 | 105 | 97.8 | 114 | 112 | 95.6 | 99.4 | 104 | 84.5 | 92.9 | 95.4 | 95.5 | 94.6 | 98.6 | 81.8 | 107 | 86.1 | 109 | 95.2 | 102 | > 10 | > 10 | > 10 | > 10 | > 10 | 0 | 0 | 1.4 | 0.6 | 0 |
| O=C1c2ccccc2C(Cc2ccncc2)(Cc2ccncc2)c2ccccc21 [XE-991] | 100 | 94.1 | 97.5 | 93.8 | 89.2 | 108 | 87.7 | 108 | 91.2 | 99.8 | 97.8 | 97.6 | 97.6 | 96.3 | 89.1 | 103 | 98.8 | 100 | 96.5 | 100 | 94.5 | 101 | 98.8 | 93.3 | 91.1 | > 10 | > 10 | > 10 | > 10 | > 10 | 0 | 0 | 0 | 0 | 0 |
| OC(c1ccccc1)(c1ccccc1)C12CC[N+](CCOCc3ccccc3)(CC1)CC2 [umeclidinium] | 105 | 97.1 | 94.1 | 104 | 97.8 | 95.1 | 102 | 107 | 101 | 92.8 | 96.6 | 99.5 | 101 | 97.1 | 106 | 95.8 | 99.2 | 98.7 | 99 | 99.9 | 97 | 96.1 | 92.9 | 96.2 | 101 | > 10 | > 10 | > 10 | > 10 | > 10 | 0 | 0 | 0 | 0 | 0 |
| CN1CCC(=C2c3ccccc3CC(=O)c3sccc32)CC1 [ketotifen] | 110 | 101 | 94.1 | 89.7 | 96.3 | 108 | 93 | 101 | 95.5 | 105 | 98.5 | 96.9 | 112 | 92.9 | 84.9 | 101 | 99.3 | 103 | 96 | 103 | 99.4 | 93.6 | 96.4 | 98.4 | 84.9 | > 10 | > 10 | > 10 | > 10 | > 10 | 0.1 | 0 | 0.8 | 0 | 0.4 |
| CC(C)c1nc(CN(C)C(=O)N[C@H](C(=O)N[C@@H](Cc2ccccc2)C[C@H](O)[C@H](Cc2ccccc2)NC(=O)OCc2cncs2)C(C)C)cs1 [ritonavir] | 97.8 | 94.3 | 96.3 | 100 | 77.5 | 102 | 87 | 93.7 | 102 | 98.6 | 98.6 | 104 | 94 | 107 | 110 | 105 | 97.5 | 98 | 94.5 | 95.4 | 94.4 | 97.5 | 89.4 | 102 | 108 | > 10 | > 10 | > 10 | > 10 | > 10 | 0.8 | 0 | 0 | 0 | 0 |

— the supplement of paper PMC13380429
